{"source": "patent US20230405014A1", "about": "“USE OF AN IRAK4 MODULATOR FOR GENE THERAPY” (Genzyme Corporation, priority 2022, published 2023)", "key": {"[1]": {"system": "transgene LacZ specific CD8 T cells", "assay": "In vivo mouse model of AAV-induced immune response, LacZ tetramer staining", "set-up": "species or system C57BL/6J mice", "conditions": "KT-474 in chow 100 mg/kg from 15 days prior to intramuscular AAV", "protocol": "In vivo mice experiments: C57BL/6J mice were purchased from Jackson Laboratories. 6-8-week male mice were divided into 3 groups—PBS group, AAV group and AAV+KT474 group all groups with 6 mice each. […] PBS group mice were injected intramuscularly with 100 ul PBS, AAV group was injected intramuscularly with 1e11 vg per quadricep muscle of both legs, 100 ul volume. AAV capsid used in the study had LacZ transgene. All animal experiments were conducted in accordance with the Institutional Animal Care and Use Committees at Sanofi, Framingham. Submandibular bleeds were performed weekly, and necropsy was performed three weeks post AAV injection.\nThe PBS and AAV only groups were fed regular chow and were bled on day 14 and necorpsied on day 21.\nPBMC isolation 120 ul blood was collected in K2EDTA coated tubes. The blood was mixed with DBPS at 1:1 ration and pipetted into a separate tube containing Ficoll (GE17-5442-02) to ensure no mixing of the blood and Ficoll phases. The mixture was centrifuged at 2000 RPM for 25 minutes at room temperature (9 acceleration and no braking). […] PBMCs were washed three times with phosphate buffered saline (PBS) containing 1% fetal bovine serum (FBS) or fetal calf serum (FCS) and counted. The PBMC cells thus obtained were stained with different antibodies to quantify percentage of different immune cell subsets in peripheral blood. […]"}, "[2]": {"system": "human monocytic dendritic cells", "assay": "Cytokine release from human monocytic dendritic cells co-treated with AAV and KT-474 (Luminex)", "assay_type": "cell-based", "conditions": "co-treatment with AAV at MOI 1e5, 24 hours, all KT-474 doses", "protocol": "Preparation of Peripheral Blood Mononuclear Cells. Blood from leukopaks (Stem cell technologies) from different donors was decanted into 50 mL tubes and Dulbecco's phosphate buffered saline (DPBS) was added at a 1:1 ratio. The blood plus DBPS mix was gently pipetted into a separate 50 mL tube containing 15 mL Ficoll (GE17-5442-02) to ensure no mixing of the blood and Ficoll phases. The mixture was centrifuged at 2000 RPM for 25 minutes at room temperature (9 acceleration and no braking). The buffy coat containing the peripheral blood mononuclear cells (PBMCs) was collected, transferred to a new tube, and centrifuged for five minutes at 400 RCF. PBMCs were washed three times with phosphate buffered saline (PBS) containing 1% fetal bovine serum (FBS) or fetal calf serum (FCS) and counted.\nIsolation of Monocytes. CD14+ monocytes were isolated from the PBMCs using CD14 MicroBeads following the manufacturer's protocol (Miltenyi Biotech, Germany, order no. 130-050-201, protocol available online world wide web miltenyibiotec.com/upload/assets/IM0001260.PDF). Briefly, PBMCs were incubated with […] CD14 MicroBeads per 10^7 total cells for 15 minutes at 2-8° C. PBMCs were applied onto a magnetic column (Miltenyi; world wide web miltenyibiotec.com/US-en/products/ls-columns.html #130-042-401) and unlabeled cells were allowed to pass through. After washing the column three times, the column was removed from the magnetic separator, (Miltneyi; world wide web miltenyibiotec.com/US-en/products/quadromacs-separator-and-starting-kits.html #130-091-051) placed on a collection tube, and magnetically labeled CD14+ monocytes were flushed out by pushing a plunger into the column.\nDifferentiation of Monocytes. […]\nrAAV Production and Titration. rAAV vectors were produced using a standard triple transfection method (Sena-Esteves and Gao, Cold Spring Harb Protoc; doi:10.1101/pdb.top095513, 2020). All serotypes evaluated encode the same GFP transgene. Viruses were purified by cesium chloride ultracentrifugation and titrated using both silver staining and quantitative polymerase chain reaction (qPCR). […]"}, "[3]": {"system": "primary human monocytic dendritic cells", "assay": "Cell viability of dendritic cells (Live/Dead staining, flow cytometry)", "assay_type": "cell-based", "conditions": "AAV at MOI 1e5 and KT-474 co-treated, 24 hours, at doses tested, three donors (FIG. 3)"}}}
{"molecule": "Cn1c(=O)n(C2CCC(=O)NC2=O)c2cccc(C#CCOC3CCN(C[C@H]4CC[C@H](n5cc(NC(=O)c6cnn7ccc(N8C[C@H]9C[C@@H]8CO9)nc67)c(C(F)F)n5)CC4)CC3)c21", "note": "(stereo partly drawn) [KT-474]", "values": [{"measurement": "LacZ tetramer positive (transgene LacZ specific) CD8 T cells in PBMCs", "setting": "[1]; peripheral blood, 14 days post AAV injection (FIG. 6A)", "result": "reduced significantly"}, {"measurement": "LacZ tetramer positive (transgene LacZ specific) CD8 T cells in spleen", "setting": "[1]; splenocytes, 21 days post AAV injection (FIG. 6B)", "result": "reduced significantly"}, {"measurement": "AAV-induced secretion of IL1b", "setting": "[2]; three donors (FIG. 2A)", "result": "blocked"}, {"measurement": "AAV-induced secretion of IL6", "setting": "[2]; three donors (FIG. 2B)", "result": "blocked"}, {"measurement": "AAV-induced secretion of TNFa", "setting": "[2]; three donors (FIG. 2C)", "result": "blocked"}, {"measurement": "cellular toxicity (cell viability)", "setting": "[3]", "result": "no cellular toxicity"}]}
